Measurements: the NIST ThermoML archive (doi:10.1016/j.jct.2013.01.019)
Numbers after ± are expanded uncertainties.

Columns and labels:
[1] = Crystal; DTA
[2] = Molar enthalpy of transition or fusion; conditions: Crystal; DSC

Normal melting temperature [1]	Molar enthalpy of transition or fusion [2]	Structure (SMILES)
24.00 ± 0.53 °C	9.33 ± 0.263 kcal/mol	CCCCCCCCCCCCO [dodecan-1-ol]
27.80 ± 0.53 °C	14.7 ± 0.406 kcal/mol	CCCCCCCCCCCCCCCCCC [octadecane]
